In patent US20230295116A1, “PROTEASOME ENHANCERS AND USES THEREOF” (Board of Trustees of Michigan State University, priority 2020, published 2023):

Tests used:
[1] = biological target: T1, human constitutive 20S proteasome (Homo sapiens, UniProt P25787+P60900); assay: Fluorogenic peptide degradation 20S proteasome activity assay; format: biochemical; details: for AC200 (doubling of 20S activity): combination of the three fluorogenic peptide substrates (CT-L, T-L, Casp-L)
T1 construct: purchased Boston Biochem, Inc. (Cambridge, MA)
Source text: These substrates were a chymotryptic-like (CT-L), a trypsin-like (T-L) and a caspase-like (Casp-L) substrate, one for each of the catalytic sites of the proteasome. It has been shown that the proteasome’s active sites allosterically regulate each other in the presence of their individual substrates. Therefore, a combination of the three probes to represent the overall activity of a 20S activator more accurately in a system in which all catalytic sites are interacting.
The 20S activity of astemizoles and N-acylastemizole (compound 2) was further assessed in the fluorogenic peptide assay, using each of the individual substrates as well as the combination of the three (FIG. 1B). […] The N-acylated analog achieved similar max fold increases for each substrate/combination (>800% increase over vehicle).
Activity assays were carried out in a 100 µL reaction volume. Different concentrations (1-80 µM) of test compounds were added to a black flat/clear bottom 96-well plate containing 1 nM of human constitutive 20S proteasome, in 50 mM Tris-HCl at pH 7.8, 100 mM NaCl and allowed to incubate for 15 min at 37° C. Fluorogenic substrates were then added and the enzymatic activity measured at 37° C. on a SpectraMax M5e spectrometer by measuring the change in fluorescence unit per minute for 1 hour at 380-460 nm. The fluorescence units for the vehicle control were set at a 100%, and the ratio of drug-treated sample set to that of vehicle control was used to calculate the fold change in enzymatic activity. The fluorogenic substrates used were one of the following: Suc-LLVY-AMC (CT-L activity, 20 µM), Z-LLE-AMC (Casp-L activity, 20 µM), Boc-LRR-AMC (T-L activity, 40 µM) or a combination of the three substrates each at 6.67 µM.

[2] = tested on: MYC-mediated gene transcription; assay: Myc reporter assay (luciferase); format: cell-based; details: Homo sapiens, HCT-116; HCT116 Myc-Luc reporter cells, 16 hours, n=3; read-out: EC50 for inhibition of c-MYC
Description: (§1) Firefly luminescence was measured using the One-Step Luciferase Assay System from BPS Biosciences.
as §1

NF-kB transcription = assay: NF-κB reporter assay (luciferase); format: cell-based; details: Homo sapiens; HCT-116 NF-kappaB-luc reporter cells, TNF-alpha 2 ng/mL, 16 hours, n=3; read-out: EC50 for inhibition of NF-kB transcription
Description: as §1

| Compound | activation of catalytic sites of the 20S proteasome ([1]; CT-L, T-L and Casp-L substrates) | AC200 (doubling of 20S activity) [1] [µM] | max fold increase (increase over vehicle) ([1]; each substrate/combination) [%] | EC50 [2] [µM] | EC50 (NF-kB transcription) [µM] |
| --- | --- | --- | --- | --- | --- |
| COc1ccc(CCN2CCC(Nc3nc4ccccc4n3Cc3ccc(F)cc3)CC2)cc1 [Compound 1, astemizole, reference compound] | activates all three catalytic sites | 3.3 |  |  |  |
| COc1ccc(CC(=O)N2CCC(Nc3nc4ccccc4n3Cc3ccc(F)cc3)CC2)cc1 [Compound 2, 1-(4-((1-(4-fluorobenzyl)-1H-benzo[d]imidazol-2-yl)amino)piperidin-1-yl)-2-(4-methoxyphenyl)ethan-1-one] |  | 3.9 | > 800 | 19 | 18 |
